Assay results taken from patent US7361659B2, “Pyrrazolo-pyrimidine derivatives” (Hoffmann-La Roche Inc., priority 2005, dated 2008).

Compound | melting point [°C]
CC(C)(CO)NS(=O)(=O)c1cc(NC(=O)c2cnn3c(C(F)(F)F)cc(-c4ccc(C(F)(F)F)c(OCC(F)(F)F)c4)nc23)c(Cl)s1 [Example 17, 5-[3-(2,2,2-Trifluoro-ethoxy)-4-trifluoromethyl-phenyl]-7-trifluoromethyl-pyrazolo[1,5-a]pyrimidine-3-carboxylic acid [2-chloro-5-(2-hydroxy-1,1-dimethyl-ethylsulfamoyl)-thiophen-3-yl]-amide] | 264
Cc1nc(NC(=O)c2cnn3c(C(F)(F)F)cc(-c4ccc(C(F)(F)F)c(OCC(F)(F)F)c4)nc23)sc1S(=O)(=O)NC(C)(C)CO [Example 32, 5-[3-(2,2,2-Trifluoro-ethoxy)-4-trifluoromethyl-phenyl]-7-trifluoromethyl-pyrazolo[1,5-a]pyrimidine-3-carboxylic acid [5-(2-hydroxy-1,1-dimethyl-ethylsulfamoyl)-4-methyl-thiazol-2-yl]-amide] | 275
Cc1cc(-c2cc(C(F)F)n3ncc(C(=O)Nc4nc(C)c(S(=O)(=O)NC(C)(C)CO)s4)c3n2)ccc1C(F)(F)F [Example 39, 7-Difluoromethyl-5-(3-methyl-4-trifluoromethyl-phenyl)-pyrazolo[1,5-a]pyrimidine-3-carboxylic acid [5-(2-hydroxy-1,1-dimethyl-ethylsulfamoyl)-4-methyl-thiazol-2-yl]-amide] | 271
CN1CCN(S(=O)(=O)c2cc(NC(=O)c3cnn4c(C(F)F)cc(-c5ccc(C(F)(F)F)cc5)nc34)c(Cl)s2)CC1 [Example 73, 7-Difluoromethyl-5-(4-trifluoromethyl-phenyl)-pyrazolo[1,5-a]pyrimidine-3-carboxylic acid [2-chloro-5-(4-methyl-piperazine-1-sulfonyl)-thiophen-3-yl]-amide] | 293
CC(C)(CO)NS(=O)(=O)c1cnc(NC(=O)c2cnn3c(C(F)F)cc(-c4ccc(C(F)(F)F)cc4)nc23)s1 [Example 60, 7-Difluoromethyl-5-(4-trifluoromethyl-phenyl)-pyrazolo[1,5-a]pyrimidine-3-carboxylic acid [5-(2-hydroxy-1,1-dimethyl-ethylsulfamoyl)-thiazol-2-yl]-amide] | 280
CN(CCO)S(=O)(=O)c1cc(NC(=O)c2cnn3c(C(F)F)cc(-c4ccc(C(F)(F)F)cc4)nc23)c(Cl)s1 [Example 72, 7-Difluoromethyl-5-(4-trifluoromethyl-phenyl)-pyrazolo[1,5-a]pyrimidine-3-carboxylic acid {2-chloro-5-[(2-hydroxy-ethyl)-methyl-sulfamoyl]-thiophen-3-yl}-amide] | 231
NS(=O)(=O)c1cc(NC(=O)c2cnn3c(C(F)F)cc(-c4ccc(C(F)(F)F)cc4)nc23)c(Cl)s1 [Example 1, 7-Difluoromethyl-5-(4-trifluoromethyl-phenyl)-pyrazolo[1,5-a]pyrimidine-3-carboxylic-acid (2-chloro-5-sulfamoyl-thiophen-3-yl)-amide] | 298
O=C(Nc1cc(S(=O)(=O)NC(CO)CO)sc1Cl)c1cnn2c(C(F)F)cc(-c3ccc(C(F)(F)F)cc3)nc12 [Example 28, 7-Difluoromethyl-5-(4-trifluoromethyl-phenyl)-pyrazolo[1,5-a]pyrimidine-3-carboxylic acid [2-chloro-5-(2-hydroxy-1-hydroxymethyl-ethylsulfamoyl)-thiophen-3-yl]-amide] | 241
Cc1cc(-c2cc(C(F)F)n3ncc(C(=O)Nc4nc(C)c(S(N)(=O)=O)s4)c3n2)ccc1C(F)(F)F [Example 33, 7-Difluoromethyl-5-(3-methyl-4-trifluoromethyl-phenyl)-pyrazolo[1,5-a]pyrimidine-3-carboxylic acid (4-methyl-5-sulfamoyl-thiazol-2-yl)-amide] | 307
Cc1nc(NC(=O)c2cnn3c(C(F)(F)F)cc(-c4ccc(C(F)(F)F)cc4)nc23)sc1S(=O)(=O)N(C)CCO [Example 71, 7-Trifluoromethyl-5-(4-trifluoromethyl-phenyl)-pyrazolo[1,5-a]pyrimidine-3-carboxylic acid {5-[(2-hydroxy-ethyl)-methyl-sulfamoyl]-4-methyl-thiazol-2-yl}-amide] | 266
Cc1nc(NC(=O)c2cnn3c(C(F)(F)F)cc(-c4ccc(C(F)(F)F)c(OCC(F)(F)F)c4)nc23)sc1S(N)(=O)=O [Example 27, 5-[3-(2,2,2-Trifluoro-ethoxy)-4-trifluoromethyl-phenyl]-7-trifluoromethyl-pyrazolo[1,5-a]pyrimidine-3-carboxylic acid (4-methyl-5-sulfamoyl-thiazol-2-yl)-amide] | 264
Cc1nc(NC(=O)c2cnn3c(C(F)F)cc(-c4ccc(C(F)(F)F)cc4)nc23)sc1S(=O)(=O)N(C)CCO [Example 70, 7-Difluoromethyl-5-(4-trifluoromethyl-phenyl)-pyrazolo[1,5-a]pyrimidine-3-carboxylic acid {5-[(2-hydroxy-ethyl)-methyl-sulfamoyl]-4-methyl-thiazol-2-yl}-amide] | 216
NS(=O)(=O)c1cnc(NC(=O)c2cnn3c(C(F)(F)F)cc(-c4ccc(C(F)(F)F)cc4)nc23)s1 [Example 51, 7-Trifluoromethyl-5-(4-trifluoromethyl-phenyl)-pyrazolo[1,5-a]pyrimidine-3-carboxylic acid (5-sulfamoyl-thiazol-2-yl)-amide] | 309
NCCNS(=O)(=O)c1cc(NC(=O)c2cnn3c(C(F)(F)F)cc(-c4ccc(C(F)(F)F)cc4)nc23)c(Cl)s1 [Example 78, 7-Trifluoromethyl-5-(4-trifluoromethyl-phenyl)-pyrazolo[1,5-a]pyrimidine-3-carboxylic acid [5-(2-amino-ethylsulfamoyl)-2-chloro-thiophen-3-yl]-amide] | 195
CN1CCN(S(=O)(=O)c2cc(NC(=O)c3cnn4c(C(F)(F)F)cc(-c5ccc(C(F)(F)F)cc5)nc34)c(Cl)s2)CC1 [Example 74, 7-Trifluoromethyl-5-(4-trifluoromethyl-phenyl)-pyrazolo[1,5-a]pyrimidine-3-carboxylic acid [2-chloro-5-(4-methyl-piperazine-1-sulfonyl)-thiophen-3-yl]-amide] | 301
Cc1nc(NC(=O)c2cnn3c(C(F)(F)F)cc(-c4ccc(C(F)(F)F)cc4)nc23)sc1S(=O)(=O)NC(C)(C)CO [Example 13, 7-Trifluoromethyl-5-(4-trifluoromethyl-phenyl)-pyrazolo[1,5-a]pyrimidine-3-carboxylic acid [5-(2-hydroxy-1,1-dimethyl-ethylsulfamoyl)-4-methyl-thiazol-2-yl]-amide] | 257
Cc1nc(NC(=O)c2cnn3c(C(F)(F)F)cc(-c4ccc(C(F)(F)F)cc4)nc23)sc1S(=O)(=O)NC(CO)CO [Example 64, 7-Trifluoromethyl-5-(4-trifluoromethyl-phenyl)-pyrazolo[1,5-a]pyrimidine-3-carboxylic acid [5-(2-hydroxy-1-hydroxymethyl-ethylsulfamoyl)-4-methyl-thiazol-2-yl]-amide] | 215
CCOc1cc(-c2cc(C(F)(F)F)n3ncc(C(=O)Nc4cc(S(=O)(=O)NC(C)(C)CO)sc4Cl)c3n2)ccc1C(F)(F)F [Example 15, 5-(3-Ethoxy-4-trifluoromethyl-phenyl)-7-trifluoromethyl-pyrazolo[1,5-a]pyrimidine-3-carboxylic acid [2-chloro-5-(2-hydroxy-1,1-dimethyl-ethylsulfamoyl)-thiophen-3-yl]-amide] | 234
Cc1nc(NC(=O)c2cnn3c(C(F)F)cc(-c4ccc(C(F)(F)F)cc4)nc23)sc1S(=O)(=O)NC(C)(C)CO [Example 14, 7-Difluoromethyl-5-(4-trifluoromethyl-phenyl)-pyrazolo[1,5-a]pyrimidine-3-carboxylic acid [5-(2-hydroxy-1,1-dimethyl-ethylsulfamoyl)-4-methyl-thiazol-2-yl]-amide] | 268
CC(C)(CO)NS(=O)(=O)c1cnc(NC(=O)c2cnn3c(C(F)(F)F)cc(-c4ccc(C(F)(F)F)cc4)nc23)s1 [Example 59, 7-Trifluoromethyl-5-(4-trifluoromethyl-phenyl)-pyrazolo[1,5-a]pyrimidine-3-carboxylic acid [5-(2-hydroxy-1,1-dimethyl-ethylsulfamoyl)-thiazol-2-yl]-amide] | 292
Cc1nc(NC(=O)c2cnn3c(C(F)(F)F)cc(-c4ccc(C(F)(F)F)cc4)nc23)sc1S(=O)(=O)N(CCO)CCO [Example 41, 7-Trifluoromethyl-5-(4-trifluoromethyl-phenyl)-pyrazolo[1,5-a]pyrimidine-3-carboxylic acid {5-[bis-(2-hydroxy-ethyl)-sulfamoyl]-4-methyl-thiazol-2-yl}-amide] | 214
Cc1nc(NC(=O)c2cnn3c(C(F)(F)F)cc(-c4ccc(C(F)(F)F)cc4)nc23)sc1S(=O)(=O)N1CCC(O)C1 (racemic) [Example 76, 7-Trifluoromethyl-5-(4-trifluoromethyl-phenyl)-pyrazolo[1,5-a]pyrimidine-3-carboxylic acid [(RS)-5-(3-hydroxy-pyrrolidine-1-sulfonyl)-4-methyl-thiazol-2-yl]-amide] | 300
Cc1nc(NC(=O)c2cnn3c(C(F)(F)F)cc(-c4ccc(Cl)c(Cl)c4)nc23)sc1S(N)(=O)=O [Example 26, 5-(3,4-Dichloro-phenyl)-7-trifluoromethyl-pyrazolo[1,5-a]pyrimidine-3-carboxylic acid (4-methyl-5-sulfamoyl-thiazol-2-yl)-amide] | 307
NS(=O)(=O)c1nnc(NC(=O)c2cnn3c(C(F)(F)F)cc(-c4ccc(C(F)(F)F)cc4)nc23)s1 [Example 4, 7-Trifluoromethyl-5-(4-trifluoromethyl-phenyl)-pyrazolo[1,5-a]pyrimidine-3-carboxylic acid (5-sulfamoyl-[1,3,4]thiadiazol-2-yl)-amide] | 280
Cc1nc(NC(=O)c2cnn3c(C(F)F)cc(-c4ccc(C(F)(F)F)cc4)nc23)sc1S(=O)(=O)NC(C)(CO)CO [Example 43, 7-Difluoromethyl-5-(4-trifluoromethyl-phenyl)-pyrazolo[1,5-a]pyrimidine-3-carboxylic acid [5-(2-hydroxy-1-hydroxymethyl-1-methyl-ethylsulfamoyl)-4-methyl-thiazol-2-yl]-amide] | 248
